{"source": "patent US20250163104A1", "about": "“MACROCYCLIC IMMUNOMODULATORS” (priority 2021, published 2025)", "note": "Where a SMILES comes first, the peptide text is derived from it. Bridges are numbered along the chain shown (N, C = ends). [ ]: non-standard residue; d: D form. The star is where a group is joined. Bip = N[C@@H](Cc1ccc(-c2ccccc2)cc1)C(=O)O; Phe(3-Cl) = N[C@@H](Cc1cccc(Cl)c1)C(=O)O; 4Pal = N[C@@H](Cc1ccncc1)C(=O)O; Cha = N[C@@H](CC1CCCCC1)C(=O)O; Carboxymethyl = O=C(O)C*; Orn = NCCC[C@H](N)C(=O)O; Dab = NCC[C@H](N)C(=O)O", "data": [{"target": "T1, human PD-1 / PD-L1-Ig binding on Jurkat cell line over-expressing human PD-1 (Jurkat-PD-1) (Homo sapiens, UniProt Q15116)", "T1 construct": "expressed in transfected cells; host or cells: Jurkat", "T1 sequence (Q15116 25-288)": "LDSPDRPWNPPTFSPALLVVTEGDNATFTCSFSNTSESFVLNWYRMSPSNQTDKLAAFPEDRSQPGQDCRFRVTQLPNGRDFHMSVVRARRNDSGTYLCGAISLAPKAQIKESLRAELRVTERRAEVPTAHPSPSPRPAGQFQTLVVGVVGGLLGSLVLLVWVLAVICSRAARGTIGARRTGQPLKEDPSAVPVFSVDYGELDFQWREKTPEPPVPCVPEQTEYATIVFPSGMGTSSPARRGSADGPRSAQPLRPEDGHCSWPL", "assay": "Jurkat-PD-1 Cell Binding High-Content Screening Assay (CBA)", "assay_type": "cell-based", "settings": "Jurkat HPD1_PDL1 IC50, Jurkat-PD-1 cells, PE-labeled PD-L1-Ig 20 nM final", "summary_of_the_method": "(§1)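 PE-PD-L1-Ig 20 nM final; cells in DMEM/10% FCS; cpd pre-incubation 2 h, 37° C; ligand 1 h; PFA fix + Hoechst 33342; high-content imaging read-out.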", "units": {"IC50": "µM"}, "values": [{"molecule": "CC[C@H](C)[C@@H]1NC(=O)[C@H](Cc2ccc(-c3ccccc3)cc2)NC(=O)[C@H](C(C)C)NC(=O)[C@H](Cc2cccc(Cl)c2)NC(=O)[C@H](CC(=O)O)NC(=O)[C@H](Cc2ccc(OCC(=O)O)cc2)NC(=O)[C@H](Cc2ccc(OCC(=O)O)cc2)NC(=O)CSC[C@@H](C(=O)N[C@@H](C)C(N)=O)NC(=O)[C@H]([C@@H](C)O)NC(=O)[C@H](C(C)C)NC(=O)[C@H](CC2CCCCC2)NC(=O)[C@H](CCN)NC(=O)[C@@H](CC(C)C)NC(=O)[C@H](CCCN)NC1=O", "note": "[Compound 1568]", "IC50": 0.0245}]}, {"target": "T1, human PD-1 / PD-L1-Ig binding on Jurkat cell line over-expressing human PD-1 (Jurkat-PD-1)", "assay": "Jurkat-PD-1 Cell Binding High-Content Screening Assay (CBA)", "assay_type": "cell-based", "settings": "Jurkat-PD-1 cells, PE-labeled PD-L1-Ig 20 nM final; read-out: Jurkat HPD1_PDL1 IC50", "summary_of_the_method": "as §1", "units": {"IC50": "µM"}, "values": [{"molecule": "CC(C)C[C@H]1NC(=O)[C@H](CCCN)NC(=O)[C@H](C(C)C)NC(=O)[C@H](Cc2ccc(-c3ccccc3)cc2)NC(=O)[C@H](C(C)C)NC(=O)[C@H](Cc2cccc(Cl)c2)NC(=O)[C@H](CC(=O)O)NC(=O)[C@H](Cc2ccc(C(=O)O)cc2)NC(=O)[C@H](Cc2ccc(OCC(=O)O)cc2)NC(=O)CSC[C@@H](C(=O)N[C@@H](C)C(N)=O)NC(=O)[C@H]([C@@H](C)O)NC(=O)[C@H](C(C)C)NC(=O)[C@H](CC2CCCCC2)NC(=O)[C@H](CCN)NC1=O", "note": "[Compound 1569]", "IC50": 0.0164}, {"molecule": "CC(C)C[C@H]1NC(=O)[C@H](CCCN)NC(=O)[C@H](C(C)C)NC(=O)[C@H](Cc2ccc(-c3ccccc3)cc2)NC(=O)[C@H](C(C)C)NC(=O)[C@H](Cc2cccc(Cl)c2)NC(=O)[C@H](CC(=O)O)NC(=O)[C@H](Cc2ccncc2)NC(=O)[C@H](Cc2ccc(OCC(=O)O)cc2)NC(=O)CSC[C@@H](C(=O)N[C@@H](C)C(N)=O)NC(=O)[C@H]([C@@H](C)O)NC(=O)[C@H](C(C)C)NC(=O)[C@H](CC2CCCCC2)NC(=O)[C@H](CCN)NC1=O", "note": "[Compound 1570] ({CH2CO}-Y(Carboxymethyl)[4Pal]D[Phe(3-Cl)]V[Bip]V[Orn][dL][Dab][Cha]VTCA-NH2; thioether N-14)", "IC50": 0.0184}, {"molecule": "CC(C)C[C@H]1NC(=O)[C@H](CCCN)NC(=O)[C@H](C(C)C)NC(=O)[C@H](Cc2ccc(-c3ccccc3)cc2)NC(=O)[C@H](C(C)C)NC(=O)[C@H](Cc2cccc(C(F)(F)F)c2)NC(=O)[C@H](CC(=O)O)NC(=O)[C@H](Cc2ccc(C(=O)O)cc2)NC(=O)[C@H](Cc2ccc(OCC(=O)O)cc2)NC(=O)CSC[C@@H](C(=O)N[C@@H](C)C(N)=O)NC(=O)[C@H]([C@@H](C)O)NC(=O)[C@H](C(C)C)NC(=O)[C@H](CC2CCCCC2)NC(=O)[C@H](CCN)NC1=O", "note": "[Compound 1571]", "IC50": 0.0169}, {"molecule": "Cc1cccc(C[C@@H]2NC(=O)[C@H](CC(=O)O)NC(=O)[C@H](Cc3ccc(OCC(=O)O)cc3)NC(=O)[C@H](Cc3ccc(OCC(=O)O)cc3)NC(=O)CSC[C@@H](C(=O)N[C@@H](C)C(N)=O)NC(=O)[C@H]([C@@H](C)O)NC(=O)[C@H](C(C)C)NC(=O)[C@H](CC3CCCCC3)NC(=O)[C@H](CCN)NC(=O)[C@@H](CC(C)C)NC(=O)[C@H](CCCN)NC(=O)[C@H](C(C)C)NC(=O)[C@H](Cc3ccc(-c4ccccc4)cc3)NC(=O)[C@H](C(C)C)NC2=O)c1", "note": "[Compound 1572]", "IC50": 0.0172}, {"molecule": "CC(C)C[C@H]1NC(=O)[C@H](CCCN)NC(=O)[C@H](C(C)C)NC(=O)[C@H](Cc2ccc(-c3ccccc3)cc2)NC(=O)[C@H](C(C)C)NC(=O)[C@H](Cc2cccc(Cl)c2)NC(=O)[C@H](CC(=O)O)NC(=O)[C@H](Cc2ccc(OCC(=O)O)cc2)NC(=O)[C@H](Cc2ccc(OCC(=O)O)cc2)NC(=O)CSC[C@@H](C(=O)N[C@@H](C)C(N)=O)NC(=O)[C@H]([C@@H](C)O)NC(=O)[C@H](C(C)C)NC(=O)[C@H](CC2CCCCC2)NC(=O)[C@H](CCN)NC1=O", "note": "[Compound 1573]", "IC50": 0.0181}, {"molecule": "CC(C)C[C@H]1NC(=O)[C@H](CCCN)NC(=O)[C@H](C(C)C)NC(=O)[C@H](Cc2ccc(-c3ccccc3)cc2)NC(=O)[C@H](C(C)C)NC(=O)[C@H](Cc2cccc(C(F)(F)F)c2)NC(=O)[C@H](CC(=O)O)NC(=O)[C@H](Cc2ccc(OCC(=O)O)cc2)NC(=O)[C@H](Cc2ccc(OCC(=O)O)cc2)NC(=O)CSC[C@@H](C(=O)N[C@@H](C)C(N)=O)NC(=O)[C@H]([C@@H](C)O)NC(=O)[C@H](C(C)C)NC(=O)[C@H](CC2CCCCC2)NC(=O)[C@H](CCN)NC1=O", "note": "[Compound 1574]", "IC50": 0.0304}]}]}
